Experimental data taken from patent US6395787B1, “Ocular hypotensive lipids” (Allergan Sales, Inc., priority 2000, dated 2002).

Key:
[1] = system: rabbit jugular vein segment; assay: Vasorelaxation of histamine precontracted rabbit jugular vein segment
Protocol: (§1) Smooth muscle tension of isolated tissues was measured isometrically with force displacement transducers (Grass FT-03) and recorded on Grass Polygraphs (Models 7G and 79E). The organ baths contained Krebs solution maintained at 37° C. and gassed with 95% 02/5% CO2 to give a pH of 7.4. The Krebs solution had the following composition (mM): NaCl, 118.0; KCl, 4.7; KH2PO4, 1.2; CaCl2, 1.9; MgSO4, 1.18; NaHCO3, 25.0; glucose, 11.7; indomethacin, 0.001.
New Zealand albino rabbit of either sex, weighing 2-4 kg, were injected with 1000 U heparin into the marginal ear vein and then sacrificed by CO2 gas. The external jugular veins were cleared of fat and adherent connective tissue and removed. The veins were transected and each ring of 3-4 mm length was suspended between two metal hooks in a jacketed organ bath. The tissues were equilibrated for 1 hr under 0.75 g tension, which was readjusted as the tissues relaxed. Single doses of histamine, 10^−5 M then 2-3×10^−6 M, with washing after each dose, were given to contract the tissue and establish responsiveness. The TP-receptor antagonist SQ29548, (Ogletree et al. (1985) J. Pharmacol. Exp. Ther. 234 435-441) at (10^−6 M), was applied for 5 min and then histamine 2-3×10^−6 M was added to elicit the contractile response. After 30 min of pretreatment with the histamine, the relaxant response was tested by adding cumulative doses of the test compounds with 10^−8 M to 10^−7 M PGE2 at the end of each dose-response curve as a reference. A recovery period of 30-50 min was allowed after wash-out of the tissues. Relaxant activity was calculated as % of the control tone elicited by histamine.

[2] = biological target: human FP receptor (Homo sapiens, UniProt P43088); assay: Radioligand binding competition vs 3H-17-phenyl PGF2α, recombinant human FP receptor; parameters: expressed in transfected cells; settings: for % specific binding mean χ ± SEM: vs 5nM 3H-17-phenyl PGF2α, n = 3
Protocol: (§2) Plasma membrane preparations of HEK 293 cells stably transfected with the human or feline FP receptor were obtained as follows. Cells washed with TME buffer were scraped from the bottom of the flasks and homogenized for 30 sec using a Brinkman PT 10/35 polytron. TME buffer was added as necessary to achieve a 40 ml volume in the centrifuge tubes. TME is comprised of 100 mM TRIS base, 20 mM Mg Cl2, 2 m EDTA; physiological pH is achieved by adding 10 N HCl. The cell homogenate was centrifuged at 19,000 rpm for 20 min at 4-6° C. using a Beckman Ti-60 rotor. The pellet was then resuspended in TME buffer to provide a final protein concentration of 1 mg/ml, as determined by Biorad assay. Radioligand binding assays were performed in a 200 μl volume.
Incubations were for 60 min at 25° C. and were terminated by the addition of 4 ml of ice-cold 50 mM TRIS-HCl followed by rapid filtration through Whatman GF/B filters and three additional 4 ml washes in a cell harvester (Brandel).

[3] = system: dog ocular surface hyperemia; assay: Dog ocular surface hyperemia; format: in vivo; parameters: key: <1 trace 0.5; 1 mild 1; moderate 2; severe 3; settings: throughout the 24 hr experimental period, trace for vehicle
Protocol: Ocular surface hyperemia was visually assessed and scored according to a system typically used clinically.
Ocular surface hyperemia was evaluated at the same time points as intraocular pressure measurement. It should be noted that untreated dog eyes frequently have a pink/red tone. Thus, values of trace or even mild are not necessarily out of the normal range.

[4] = biological target: recombinant feline FP receptor (Felis catus, UniProt A0ABI7XJ69); assay: Radioligand binding competition vs 3H-17-phenyl PGF2α, recombinant feline FP receptor; parameters: species or system cat
Protocol: as §2, with “TME is comprised of 100 mM TRIS base, 20 mM Mg Cl2, 2 m EDTA; physiological pH is achieved by adding 10 N HCl.” left out, “[…] Incubations” for “Radioligand binding assays”, “for 60 min at 25° C. and were terminated by the addition of 4 ml of ice-cold 50 mM TRIS-HCl followed by rapid filtration through Whatman GF/B filters and three additional 4 ml washes” for “performed”, “cell harvester (Brandel).” for “200 μl volume.”

[5] = system: isolated rat aorta (TP receptor preparation); assay: Isolated rat aorta contraction; settings: 10^−6 and 10^−5 M
Protocol: as §1
Adult Sprague Dawley rats weighing 180-220 grams were anesthetized by CO2 inhalation and then decapitated and exsanguinated. The thoracic aorta was removed and cleaned of any adhering tissue. The lumen was flushed to remove any blood. The aorta was dissected into three small segments of 5-8 mm length. Each segment was mounted under 2 g of tension in a jacketed 10 ml organ bath with the aid of two wire hooks placed through the lumen of the vessel. This arrangement allowed for measurement of contraction forces developed by the circular smooth muscle. The tissues were allowed to equilibrate for 1 hour before compounds were added cumulatively to the organ baths. The response to 10^−7 M U-46619 (a thromboxane mimetic) was determined at the beginning and end of each experiment as a reference. A 30-45 minute recovery period was allowed after complete wash-out of drug. Only one test compound was examined in each tissue.

[6] = system: isolated guinea pig ileum (EP1 receptor preparation); assay: Isolated guinea pig ileum contraction
Protocol: as §1
The guinea pig ileum is an EP1 receptor preparation. An approximately 1.5 cm segment of guinea pig ileum was suspended in a jacketed organ bath under 1 g tension. Following a 1 hr equilibration period, a wash-out dose response curve for PGE2 was obtained. 30 min wash-out periods were allowed between doses. […] A final administration of PGE2 10^−6 M was given as a reference. Data were expressed as % maximal of the PGE2 response.

human FP receptor, sequence (P43088 whole entry): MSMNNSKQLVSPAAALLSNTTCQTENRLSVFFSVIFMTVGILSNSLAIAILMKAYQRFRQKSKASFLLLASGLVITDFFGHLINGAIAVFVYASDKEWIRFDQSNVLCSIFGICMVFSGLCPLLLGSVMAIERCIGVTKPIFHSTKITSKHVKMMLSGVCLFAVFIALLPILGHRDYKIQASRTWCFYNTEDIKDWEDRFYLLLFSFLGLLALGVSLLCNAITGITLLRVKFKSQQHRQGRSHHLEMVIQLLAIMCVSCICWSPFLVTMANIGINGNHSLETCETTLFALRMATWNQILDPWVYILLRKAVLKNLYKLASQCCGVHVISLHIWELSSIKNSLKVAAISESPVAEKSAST
recombinant feline FP receptor, sequence (A0ABI7XJ69 entry or part of it): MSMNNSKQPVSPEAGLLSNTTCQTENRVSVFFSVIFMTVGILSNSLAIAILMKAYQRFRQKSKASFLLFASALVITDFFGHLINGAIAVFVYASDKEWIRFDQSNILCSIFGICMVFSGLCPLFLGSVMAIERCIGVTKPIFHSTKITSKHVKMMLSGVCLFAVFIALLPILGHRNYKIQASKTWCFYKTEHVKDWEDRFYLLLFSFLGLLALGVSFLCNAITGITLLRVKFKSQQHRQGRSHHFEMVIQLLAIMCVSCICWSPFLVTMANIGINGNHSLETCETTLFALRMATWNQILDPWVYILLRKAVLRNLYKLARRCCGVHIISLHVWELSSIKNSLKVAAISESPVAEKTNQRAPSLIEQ

## CCCCC[C@H](O)/C=C/[C@@H]1[C@@H](C/C=C\CCCC(=O)NCCO)[C@@H](O)C[C@H]1O [PGF2α 1-ethanolamide, (5Z,8α,9α,11α,13E,15S)-9,11,15-trihydroxy-N-(2-hydroxyethyL)prosta-5,13-dien-1-amide]
[1]; Oryctolagus cuniculus, histamine precontracted, read-out: E.C.50, vasorelaxation of the precontracted rabbit jugular vein segment
  EC50: 2 µM
[1]; histamine precontracted rabbit jugular vein segment
  endothelium dependent vasorelaxation: relatively little activity
[2]; 10^−5 M
  % specific binding mean χ ± SEM: 19.7 ± 1.2%
[2]; 10^−6 M
  % specific binding mean χ ± SEM: 63.7 ± 2.7%
[2]; 10^−7 M
  % specific binding mean χ ± SEM: 95.9 ± 1.5%
[2]; 10^−8 M
  % specific binding mean χ ± SEM: 103.3 ± 0.3%
[2]; 10^−9 M
  % specific binding mean χ ± SEM: 94.7 ± 1.4%
[2]; read-out: I.C.50, radioligand binding
  IC50: 2.02 µM
[3]
  ocular surface hyperemia: mild
[4]; radioligand binding
  affinity for the feline receptor: only weak affinity
[4]; read-out: inhibitory concentration50 (I.C.50), radioligand binding
  IC50: 0.882 µM
[5]
  effect on the isolated rat aorta: Residual activity occurred at high doses
[6]; Cavia porcellus, 10^−5 M, reference contraction PGE2 10^−6 M, n = 4, read-out: % Maximal response mean χ ± SEM
  Emax at 10 µM: 9.7 ± 4.2%
[6]; Cavia porcellus, 10^−6 M, reference contraction PGE2 10^−6 M, n = 4, read-out: % Maximal response mean χ ± SEM
  Emax at 1 µM: 4 ± 2.6%
[6]; Cavia porcellus, 10^−7 M, reference contraction PGE2 10^−6 M, n = 4, read-out: % Maximal response mean χ ± SEM
  Emax at 0.1 µM: 0%
[6]; Cavia porcellus, 10^−8 M, reference contraction PGE2 10^−6 M, n = 4, read-out: % Maximal response mean χ ± SEM
  Emax at 0.01 µM: 0%
[6]; compared with chick ileum
  effect in the guinea pig ileum: less effective
